In patent US20080214646A1 (priority 2005, published 2008):
Several values for one entry are separate records, joined by “and”; a condition that tells them apart may be missing. Equal entries are not always repeated. Marks after values point to notes of the source that are not given here.

How the values were obtained:
ovine COX-2 = target: T1, ovine COX-2 (Ovis aries, UniProt P79208); experiment: In vitro ovine COX-2 enzyme inhibition (EIA kit); type: biochemical; details: for IC50: ovine COX-2, mean of two determinations
T1 construct: purchased Cayman Chemical 560101
T1 sequence (P79208 17-603): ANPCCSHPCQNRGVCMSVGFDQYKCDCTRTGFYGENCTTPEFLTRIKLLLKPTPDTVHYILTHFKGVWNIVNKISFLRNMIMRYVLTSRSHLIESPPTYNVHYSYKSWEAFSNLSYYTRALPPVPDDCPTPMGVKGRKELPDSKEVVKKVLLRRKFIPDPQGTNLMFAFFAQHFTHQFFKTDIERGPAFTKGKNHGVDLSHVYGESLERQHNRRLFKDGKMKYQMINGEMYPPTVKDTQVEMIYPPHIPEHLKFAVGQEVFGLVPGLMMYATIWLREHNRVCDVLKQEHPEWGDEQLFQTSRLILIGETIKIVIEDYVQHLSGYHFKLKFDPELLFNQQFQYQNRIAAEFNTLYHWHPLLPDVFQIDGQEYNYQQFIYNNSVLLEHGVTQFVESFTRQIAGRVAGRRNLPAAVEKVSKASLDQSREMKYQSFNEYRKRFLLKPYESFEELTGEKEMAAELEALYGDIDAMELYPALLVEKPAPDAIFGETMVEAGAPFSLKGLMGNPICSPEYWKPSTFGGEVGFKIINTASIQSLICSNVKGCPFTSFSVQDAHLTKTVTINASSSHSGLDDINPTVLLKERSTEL

[1] = tested on: carrageenan-induced rat paw edema; experiment: Carrageenan-induced rat paw edema anti-inflammatory assay; type: in vivo; details: for ED50: 3 h after oral administration, rat, read-out: AI activity ID50
ovine COX-1 = target: T2, ovine COX-1 (Ovis aries, UniProt P05979); experiment: In vitro ovine COX-1 enzyme inhibition (EIA kit); type: biochemical; details: mean of two determinations
T2 construct: purchased Cayman Chemical 560101
T2 sequence (P05979 25-600): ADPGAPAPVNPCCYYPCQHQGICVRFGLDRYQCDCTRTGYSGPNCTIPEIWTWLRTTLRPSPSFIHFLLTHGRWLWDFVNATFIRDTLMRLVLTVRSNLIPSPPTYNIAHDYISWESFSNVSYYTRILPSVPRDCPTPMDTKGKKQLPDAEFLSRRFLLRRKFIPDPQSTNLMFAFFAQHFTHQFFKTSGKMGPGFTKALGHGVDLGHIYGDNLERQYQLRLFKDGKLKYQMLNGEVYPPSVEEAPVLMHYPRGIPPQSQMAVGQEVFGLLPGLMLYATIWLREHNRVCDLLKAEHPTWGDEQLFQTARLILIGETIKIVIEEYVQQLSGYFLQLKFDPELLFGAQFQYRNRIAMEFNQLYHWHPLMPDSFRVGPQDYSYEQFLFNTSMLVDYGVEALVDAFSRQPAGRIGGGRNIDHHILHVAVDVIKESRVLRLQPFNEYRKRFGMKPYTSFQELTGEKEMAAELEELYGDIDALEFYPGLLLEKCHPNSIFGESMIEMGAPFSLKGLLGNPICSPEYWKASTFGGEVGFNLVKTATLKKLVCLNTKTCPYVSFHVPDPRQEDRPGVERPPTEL

[2] = Nitric oxide release in phosphate buffer (Griess reaction); type: physicochemical; details: PBS pH 7.4, 37° C., 1.5 h; relative to theoretical maximum 2 mol NO/mol
Experimental: (§1) Nitric Oxide Release Assay: In vitro nitric oxide release, upon incubation with phosphate buffer, pig liver esterase, or guinea pig serum, was determined by quantification of nitrite produced by the reaction of nitric oxide with oxygen and water using the Griess reaction.

pig liver esterase = details: 1.5 h, pH 7.4
Experimental: as §1

gastric ulcers = experiment: Acute ulcerogenesis assay (gastric ulcer index); type: in vivo, rats; details: oral, 6 h, rat
Experimental: All drugs were suspended and administered in 1.7 mL of a 1% methylcellulose solution. Control rats received oral administration of vehicle (1.7 mL of 1.0% methylcellulose solution). Food, but not water, was removed 24 h before administration of test compounds. Six hours after oral administration of the drug, rats were euthanized in a CO2 chamber and their stomachs were removed, cut out along the greater curvature of the stomach, gently rinsed with water and placed on ice. The number and the length of ulcers were determined using a magnifier lens. […] The average overall length (in mm) of individual ulcers in each tissue was designated as the “ulcer index”. Each experimental group consisted of four rats.

[3] = equivalent amount to 250 mg of ibuprofen/kg
[4] = equivalent amount to 250 mg of aspirin/kg

Row | SMILES | COX-2 S.I. (COX-1 IC50/COX-2 IC50) (ovine COX-2; selectivity index) | IC50 (ovine COX-1) [µM] | % of Nitric oxide released, PBS (pH 7.4) [2] [%] | % of Nitric oxide released, PLE (pig liver esterase) [%] | IC50 (ovine COX-2) [µM] | ED50 [1] [mg/kg] | Ulcer index (gastric ulcers; [3]) | fold less potent relative to the parent drug (ID50) ([1]; carrageenan-induced rat paw edema, oral) | Ulcer index (gastric ulcers; equivalent amount to 30 mg of indomethacin/kg) | Ulcer index (gastric ulcers; [4])
1 | COc1ccc2c(c1)c(CC(=O)OCON=[N+]([O-])N(C)C)c(C)n2C(=O)c1ccc(Cl)cc1 [Compound 16, O^2-[2-(1-(4-Chlorobenzoyl)-5-methoxy-2-methyl-1H-indol-3-yl)acetoxymethyl]-1-(dimethylamino)diazen-1-ium-1,2-diolate] |  | > 100 | 14.3 ± 0.1 | 16.9 ± 0.1 | > 100 | 5.9 |  |  |  | 
2 | CC(C)Cc1ccc(C(C)C(=O)OCON=[N+]([O-])N2CCCC2)cc1 (stereo not drawn) [Compound 13, O^2-[2-(4-(Isobutyl)phenyl)propanoyloxymethyl]-1-(pyrrolidin-1-yl)diazen-1-ium-1,2-diolate] |  | > 100 | 14.9 ± 0.1 | 16.3 ± 0.1 | > 100 | 66.8 | 0 mm and 0^e mm |  |  | 
3 | CN(C)[N+]([O-])=N[O-].[Na+] [Compound 7, O^2-Sodium 1-(N,N-dimethylamino)diazen-1-ium-1,2-diolate, reference compound] |  |  | 95.2 ± 0.1 |  |  |  |  |  |  | 
4 | COc1ccc2c(c1)c(CC(=O)OCON=[N+]([O-])N1CCCC1)c(C)n2C(=O)c1ccc(Cl)cc1 [Compound 15, O^2-[2-(1-(4-Chlorobenzoyl)-5-methoxy-2-methyl-1H-indol-3-yl)acetoxymethyl]-1-(pyrrolidin-1-yl)diazen-1-ium-1,2-diolate] |  | > 100 | 15.1 ± 0.1 | 16.3 ± 0.1 | > 100 | 10.7 |  | about 2.5 fold | 0.7 ± 0.11^f mm | 
5 | CC(C)Cc1ccc(C(C)C(=O)O)cc1 (racemic) [Ibuprofen, ibuprofen, reference compound] |  |  |  |  |  | 67.4 |  |  |  | 
6 | [Na+].[O-]N=[N+]([O-])N1CCCC1 [O^2-sodium 1-(pyrrolidin-1-yl)diazen-1-ium-1,2-diolate, reference compound] |  |  | 94.0 ± 0.1 |  |  |  |  |  |  | 
7 | COc1ccc2c(c1)c(CC(=O)O)c(C)n2C(=O)c1ccc(Cl)cc1 [Indomethacin, indomethacin, reference compound] |  |  |  |  |  | 4.2 |  |  |  | 

More lines, main results first:

Row | COX-2 S.I. (COX-1 IC50/COX-2 IC50) (ovine COX-2; selectivity index) | IC50 (ovine COX-1) [µM] | % of Nitric oxide released, PBS (pH 7.4) [2] [%] | % of Nitric oxide released, PLE (pig liver esterase) [%] | IC50 (ovine COX-2) [µM] | SMILES | ED50 [1] [mg/kg] | Ulcer index (gastric ulcers; [3]) | fold less potent relative to the parent drug (ID50) ([1]; carrageenan-induced rat paw edema, oral) | Ulcer index (gastric ulcers; equivalent amount to 30 mg of indomethacin/kg) | Ulcer index (gastric ulcers; [4])
8 | 0.14 |  |  |  |  | CC(=O)Oc1ccccc1C(=O)O [Aspirin, Acetyl salicylic acid, reference compound] | 129 |  |  |  | 
9 |  | > 100 | 16.1 ± 0.1 | 17.3 ± 0.1 | > 100 | CC(C)Cc1ccc(C(C)C(=O)OCON=[N+]([O-])N(C)C)cc1 (stereo not drawn) [Compound 14, O^2-[2-(4-(Isobutyl)phenyl)propanoyloxymethyl]-1-(N,N-dimethylamino)diazen-1-ium-1,2-diolate] | 62.3 | 0 mm and 0^e mm |  |  | 
10 |  | > 100 | 15.4 ± 0.1 | 19.1 ± 0.1 | > 100 | CC(=O)Oc1ccccc1C(=O)OCON=[N+]([O-])N(C)C [Compound 12, O^2(Acetylsalicyloyloxymethyl)-1-(N,N-dimethylamino)diazen-1-ium-1,2-diolate] | 151 |  |  |  | 0 mm and 0^d mm
11 |  | > 100 | 14.8 ± 0.1 | 18.5 ± 0.1 | > 100 | CC(=O)Oc1ccccc1C(=O)OCON=[N+]([O-])N1CCCC1 [Compound 11, O^2(Acetylsalicyloyloxymethyl)-1-(pyrrolidin-1-yl)diazen-1-ium-1,2-diolate] | 182 |  |  |  | 0 mm and 0^d mm
